# Tests used:
# [1] = system: aggressive soft tissue sarcoma characterized as either a malignant Schwannoma or a tendosynovial sarcoma; conditions: human, in vivo
# [2] = system: adenocarcinoma originating in the ethmoid sinus; conditions: human, in vivo
smiles,measurement,setting,value
"Nc1nc2c(c(=O)[nH]1)C[C@@H](CCc1ccc(C(=O)N[C@@H](CCC(=O)O)C(=O)O)cc1)CN2 [Lometrexol, 5,10-dideaza-5,6,7,8-tet-rahydrofolic acid]",clinical response in the irradiated field,[1],dramatic
same,lometrexol retention in the patients body,[1],prolonged
same,mucositis due to the drug,[1],mild mucositis
same,thrombocytopenia to,[1],"55,000"
same,"tumor course after lometrexol, before radiation",[1],continued to rapidly progress
same,change of massively enlarged liver (hepatic metastases) after treatment,[2],marked shrinkage
same,duration of prolonged thrombocytopenia and anemia,[2],over 7 weeks
same,persistent anemia at a Hgb of,[2],5.4

# — patent EP0567324A1, “Medicaments for treating gar-transformylase-dependent tumors” (ELI LILLY AND COMPANY, priority 1992, dated 1993)
